Assay results: patent US11000505B2 (priority 2010, dated 2021)

Legend:
ERK = assay: CSF ERK activity (pERK/ERK) after HI by ELISA (Example 2); format: in vivo, newborn pigs; details: 60 min after HI; 10 μg/kg i.v. at 0 or 30 min after HI
Description: Newborn pigs (1-5 days old, 1.2-1.5 kg) of both sexes were used in this study. The animal experimental protocol was approved by the Institutional Animal Care and Use Committee of the University of Pennsylvania. As described previously, Isoflurane (1 to 2 minimum alveolar concentration) was initially used for anesthesia induction, followed by α-chloralose (30-50 mg/kg supplemented with 5 mg/kg/hr intravenously) for maintenance of anesthesia. After tracheotomy, the animals were initially ventilated with room air and kept warm with heating pad to maintain the rectal temperature at 37-39° C. Bilateral femoral arteries were catheterized to monitor the blood pressure, blood gas tensions and pH. The femoral vein was catheterized for medication administration. A closed cranial window, consisting of a steel ring with a glass cover slip, connecting to 3 ports, was placed for direct pial artery visualization and diameter measurement. Small pial arteries (120 to 160 μm) and arterioles (50 to 70 μm) were identified under a microscope, visualized on a monitor connected to the microscope, and measured via a video microscaler (model VPA 550, For-A-Corp., Los Angeles, Calif.). […]
ERK activity were then determined from frozen CSF samples described above. The levels of pERK and ERK were measured by ELISA kits (Enzo Life Sciences International, Inc., Plymouth Meeting, Pa.).

basilar artery = assay: Subarachnoid hemorrhage model (Example 8); format: in vivo
[1] = Physical and chemical properties: pKa; details: Non-ionizable

COC(=O)[C@@H]1C[C@H](OC(C)=O)C(=O)[C@H]2[C@@]1(C)CC[C@H]1C(=O)O[C@H](c3ccoc3)C[C@]21C [Salvinorin A]
CSF ERK activity (pERK/ERK) (ERK): reduced to the baseline level | neurological score (basilar artery; 24 hour after SAH): no significant effect on the neurological score | diameter of the basilar artery (basilar artery; 24 hours after SAH, H&E): increased the diameter | thickness of the wall of the basilar artery (basilar artery; 24 hours after SAH, H&E): decreased the thickness of the wall | pKa [1]: None
